Values joined by “and” are separate entries in the source; they are usually repeats but may differ in a detail not shown here. Equal entries are not always repeated. Where two headings read alike, the source gives them in different places.

For data set [1], the target named is T1, soybean lipoxygenase (isozyme LOX-1) (Glycine max, UniProt P08170).
T1 construct: purchased Sigma Chemical, Co. (St. Louis, MO, USA)
T1 sequence (P08170 1-839): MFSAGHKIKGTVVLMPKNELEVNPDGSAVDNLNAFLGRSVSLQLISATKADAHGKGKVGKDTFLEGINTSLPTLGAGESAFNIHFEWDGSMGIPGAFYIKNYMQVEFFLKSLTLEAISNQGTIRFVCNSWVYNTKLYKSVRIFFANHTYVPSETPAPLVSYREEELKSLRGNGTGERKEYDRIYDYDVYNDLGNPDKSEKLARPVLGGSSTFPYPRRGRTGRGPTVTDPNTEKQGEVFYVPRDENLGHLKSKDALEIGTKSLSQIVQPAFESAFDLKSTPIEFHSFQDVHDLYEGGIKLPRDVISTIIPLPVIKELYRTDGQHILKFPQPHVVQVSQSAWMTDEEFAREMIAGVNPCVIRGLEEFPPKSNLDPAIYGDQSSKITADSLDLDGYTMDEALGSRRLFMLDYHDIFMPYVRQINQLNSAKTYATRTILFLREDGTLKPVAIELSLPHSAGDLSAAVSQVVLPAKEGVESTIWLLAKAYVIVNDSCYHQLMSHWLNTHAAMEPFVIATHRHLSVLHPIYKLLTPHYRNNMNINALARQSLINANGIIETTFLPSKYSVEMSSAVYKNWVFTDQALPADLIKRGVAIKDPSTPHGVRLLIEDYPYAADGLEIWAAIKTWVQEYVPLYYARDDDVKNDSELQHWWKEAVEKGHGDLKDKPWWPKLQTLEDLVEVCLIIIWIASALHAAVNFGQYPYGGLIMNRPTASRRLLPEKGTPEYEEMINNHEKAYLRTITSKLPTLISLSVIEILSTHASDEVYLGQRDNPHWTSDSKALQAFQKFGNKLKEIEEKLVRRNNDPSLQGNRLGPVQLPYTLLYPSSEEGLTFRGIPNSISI
To be noted: previously published, cited from earlier work; for IC50: read-out: LOX IC50 (μM) ± SEM.

A short description of data set [2]: Inhibition of linoleic acid peroxidation induced by AAPH. Particulars: anti-lipid peroxidation of linoleic acid, 100 μM.
Data set [3] concerns the target T1, soybean lipoxygenase (isozyme LOX-1). Nature of the data set: Soybean lipoxygenase inhibition study. Particulars: for inhibition at 100 µM: read-out: LOX (% Inhibition at 100 μM) ± SEM, soybean lipoxygenase, 100 μM. It counts as biochemical.
Another data set concerns the target T2, eel AChE (Electrophorus electricus, UniProt O42275).
T2 construct: purchased Sigma-Aldrich Type VI-S
Nature of the data set: biochemical. To be noted: for inhibition at 100 µM: n.a. = no activity under the experimental conditions, read-out: AChE (% Inhibition at 100 μM) ± SEM; for IC50: acetylthiocholine substrate, read-out: AChE IC50 (μM) ± SEM.

A short description of data set [4]: Experimental lipophilicity as RM values by RPTLC. It counts as physicochemical. To be noted: silica gel impregnated with liquid paraffin, methanol/water 77/23, 24 °C.
Setting [5] is: soybean lipoxygenase, sodium linoleate substrate, read-out: LOX IC50 (μM) ± SEM.

T2 sequence (O42275 24-633): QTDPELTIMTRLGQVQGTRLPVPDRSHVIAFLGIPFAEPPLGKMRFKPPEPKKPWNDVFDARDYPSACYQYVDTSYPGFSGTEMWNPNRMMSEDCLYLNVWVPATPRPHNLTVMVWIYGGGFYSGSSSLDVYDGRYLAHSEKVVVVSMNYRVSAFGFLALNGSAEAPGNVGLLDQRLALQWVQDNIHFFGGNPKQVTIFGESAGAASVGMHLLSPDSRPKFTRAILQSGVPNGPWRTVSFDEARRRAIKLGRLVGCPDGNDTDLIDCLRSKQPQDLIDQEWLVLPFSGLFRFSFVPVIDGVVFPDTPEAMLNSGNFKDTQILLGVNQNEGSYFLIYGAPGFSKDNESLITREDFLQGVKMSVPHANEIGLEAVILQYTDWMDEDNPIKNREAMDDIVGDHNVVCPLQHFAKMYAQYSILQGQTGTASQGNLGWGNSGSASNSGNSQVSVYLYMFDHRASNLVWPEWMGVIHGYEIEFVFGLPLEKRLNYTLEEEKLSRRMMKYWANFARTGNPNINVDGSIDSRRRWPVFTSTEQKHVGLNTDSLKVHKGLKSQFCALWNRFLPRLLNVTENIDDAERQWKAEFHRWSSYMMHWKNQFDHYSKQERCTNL

As to `O=C1/C(=C/c2cccc3ccccc23)CNC/C1=C\c1cccc2ccccc12` [1a, (3E,5E)-3,5-bis(naphthalen-1-ylmethylene)piperidin-4-one], the IC50 (commonly the midpoint of a concentration-inhibition curve) in data set [1] is 37 µM.

For `O=C1/C(=C/c2cccs2)CNC/C1=C\c1cccs1` [1b, (3E,5E)-3,5-bis(thiophen-2-ylmethylene)piperidin-4-one], in data set [1], the IC50 was 330 µM.

Take `O=C1/C(=C/c2c[nH]c3ccccc23)CNC/C1=C\c1c[nH]c2ccccc12` [1c, (3E,5E)-3,5-bis((1H-indol-3-yl)methylene)piperidin-4-one]: the IC50 in data set [1] is 380 µM.

For the compound `O=C1/C(=C/c2ccc3[nH]ccc3c2)CNC/C1=C\c1ccc2[nH]ccc2c1` [1d, (3E,5E)-3,5-bis((1H-indol-5-yl)methylene)piperidin-4-one], in data set [1], the IC50 was 410 µM.

For `O=C1/C(=C/c2ccccc2)CNC/C1=C\c1ccccc1` [1g, (3E,5E)-3,5-dibenzylidenepiperidin-4-one], the “LOX (% Inhibition at 100 μM) ± SEM” value in data set [1] is given as 8% ± 0.2.

For `O=C1/C(=C/c2ccc(F)cc2)CNC/C1=C\c1ccc(F)cc1` [1j, (3E,5E)-3,5-bis(4-fluorobenzylidene)piperidin-4-one], the “AAPH Inhibition (%, at 100 μΜ)” value in data set [2] came to 36.2 ± 1.8%.

Take `O=C1/C(=C/c2cccc3ccccc23)CC/C1=C\c1cccc2ccccc12` [1k, (2E,5E)-2,5-bis(naphthalen-1-ylmethylene)cyclopentanone]: the “AAPH Inhibition (%, at 100 μΜ)” value in data set [2] is 100 ± 2.2%. Further, the IC50 in data set [3] (setting [5]) was determined as 14 µM. At eel AChE, the inhibition (as a rule, the change of the read-out against control, counted positive when it falls) at 100 µM stood at 36%. In data set [4], the “RM ± S.D.” value was 0.872 ± 0.039.

Take `O=C1/C(=C/c2ccccc2)COC/C1=C\c1ccccc1` [1l, (3E,5E)-3,5-dibenzylidenedihydro-2H-pyran-4(3H)-one]: the “AAPH Inhibition (%, at 100 μΜ)” value in data set [2] is listed as 42 ± 1.5%. Moreover, the inhibition at 100 µM in data set [3] is less than 10%; on eel AChE, 25%.

Regarding `O=C1/C(=C/c2cccc3ccccc23)COC/C1=C\c1cccc2ccccc12` [1m, (3E,5E)-3,5-bis(naphthalen-1-ylmethylene)dihydro-2H-pyran-4(3H)-one], the “AAPH Inhibition (%, at 100 μΜ)” value in data set [2] was determined as 100 ± 2.8%. Further, the IC50 in data set [3] (setting [5]) turned out to be 50.5 µM. Besides, on eel AChE, the inhibition at 100 µM was determined as 32%. Also, the “RM ± S.D.” value in data set [4] is 0.577 ± 0.027.

In the case of `O=C1/C(=C/c2cccc3ccccc23)CSC/C1=C\c1cccc2ccccc12` [1n, (3Z,5Z)-3,5-bis(naphthalen-1-ylmethylene)dihydro-2H-thiopyran-4(3H)-one], the “AAPH Inhibition (%, at 100 μΜ)” value in data set [2] was 100 ± 2.5%. Besides, in data set [3] (setting [5]), the IC50 is 57.5 µM. On eel AChE, the inhibition at 100 µM amounted to 18%. In addition, in data set [4], the “RM ± S.D.” value turned out to be 0.131 ± 0.142.

With `S=C1/C(=C/c2ccccc2)CNC/C1=C\c1ccccc1` [1o, (3E,5E)-3,5-dibenzylidenepiperidine-4-thione], the “AAPH Inhibition (%, at 100 μΜ)” value in data set [2] is given as 8 ± 0.01%. Besides, in data set [3], the inhibition at 100 µM is less than 10%. Moreover, the IC50 in data set [3] (setting [5]) came to 10 µM. For the same compound, the “RM ± S.D.” value in data set [4] was −0.848 ± 0.19.

Consider `S=C1/C(=C/c2cccc3ccccc23)CNC/C1=C\c1cccc2ccccc12` [1p, (3E,5E)-3,5-bis(naphthalen-1-ylmethylene)piperidine-4-thione], for which, in data set [2], the “AAPH Inhibition (%, at 100 μΜ)” value came to 100 ± 3.3%. Moreover, the IC50 in data set [3] (setting [5]) came to 35 µM. In addition, the inhibition at 100 µM at eel AChE was 26.6%. Besides, the “RM ± S.D.” value in data set [4] was −0.679 ± 0.035.

For `O=C1/C(=C/c2cc3ccccc3o2)CNC/C1=C\c1cc2ccccc2o1` [1q, (3E,5E)-3,5-bis(benzofuran-2-ylmethylene)piperidin-4-one], the “AAPH Inhibition (%, at 100 μΜ)” value in data set [2] is 13 ± 0.2%. Moreover, the inhibition at 100 µM stood at 3% in data set [3] and 16.5% on eel AChE. For the same compound, in data set [4], the “RM ± S.D.” value is −0.019 ± 0.143.

In the case of `O=C(O)/C=C/c1ccccc1` [2a], the “AAPH Inhibition (%, at 100 μΜ)” value in data set [2] amounted to 78 ±1.6%. Further, the inhibition at 100 µM on eel AChE amounted to 4.6%. Further, the “RM ± S.D.” value in data set [4] was −0.485 ± 0.044.

With `O=C(O)/C=C/c1cccc2ccccc12` [2b], the “AAPH Inhibition (%, at 100 μΜ)” value in data set [2] is on record as 78 ± 0.7%. This compound had an IC50 in data set [3] of 27.5 µM. For the same compound, the “RM ± S.D.” value in data set [4] was −0.576 ± 0.077.

Turning to `O=C1/C(=C/c2cccc3ccccc23)CN(C(=O)C=Cc2ccccc2)C/C1=C\c1cccc2ccccc12` [3a, (3E,5E)-1-cinnamoyl-3,5-bis(naphthalen-1-ylmethylene)piperidin-4-one], in data set [2], the “AAPH Inhibition (%, at 100 μΜ)” value stood at 91 ± 1.9%. For the same compound, the IC50 stood at 50 µM in data set [3] (setting [5]) and 85 µM on eel AChE. Besides, the “RM ± S.D.” value in data set [4] was found to be 0.599 ± 0.024.

Regarding `O=C1/C(=C/c2ccccc2)CN(C(=O)/C=C/c2cccc3ccccc23)C/C1=C\c1ccccc1` [3b, (3E,5E)-3,5-dibenzylidene-1-((E)-3-(naphthalen-1-yl)acryloyl)piperidin-4-one], the “AAPH Inhibition (%, at 100 μΜ)” value in data set [2] stood at 90 ± 2.8%. Further, the concentration for half-maximal inhibition (IC50) in data set [3] (setting [5]) was 55 µM. The inhibition at 100 µM on eel AChE is 17%. The “RM ± S.D.” value in data set [4] is 0.509 ± 0.062.

As to `O=C1/C(=C/c2cccc3ccccc23)CN(C(=O)/C=C/c2cccc3ccccc23)C/C1=C\c1cccc2ccccc12` [3c, (3E,5E)-1-((E)-3-(naphthalen-1-yl)acryloyl)-3,5-bis(naphthalen-1-ylmethylene)piperidin-4-one], the “AAPH Inhibition (%, at 100 μΜ)” value in data set [2] is 88 ± 2.0%. The half-inhibitory concentration (IC50) in data set [3] (setting [5]) turned out to be 37.5 µM. The inhibition at 100 µM on eel AChE was found to be 29%. Moreover, the “RM ± S.D.” value in data set [4] was −0.658 and −0.658 ± 0.061.

`O=C1/C(=C/c2ccc(F)cc2)CN(C(=O)C=Cc2ccccc2)C/C1=C\c1ccc(F)cc1` [3d, (3E,5E)-1-cinnamoyl-3,5-bis(4-fluorobenzylidene)piperidin-4-one]: in data set [2], the “AAPH Inhibition (%, at 100 μΜ)” value was determined as 84 ± 1.7%. Moreover, in data set [3] (setting [5]), the IC50 was determined as 63.5 µM. The inhibition at 100 µM on eel AChE amounted to 31%. Besides, the “RM ± S.D.” value in data set [4] worked out at 0.237 ± 0.06.

Turning to `O=C1/C(=C/c2ccc(F)cc2)CN(C(=O)/C=C/c2cccc3ccccc23)C/C1=C\c1ccc(F)cc1` [3f, (3E,5E)-3,5-bis(4-fluorobenzylidene)-1-((E)-3-(naphthalen-1-yl)acryloyl)piperidin-4-one], the “AAPH Inhibition (%, at 100 μΜ)” value in data set [2] is listed as 90 ± 2.4%. Besides, the IC50 in data set [3] (setting [5]) came to 55 µM. Moreover, the inhibition at 100 µM on eel AChE stood at 24%. Also, the “RM ± S.D.” value in data set [4] is 0.564 ± 0.045.

With `O=C1/C(=C/c2ccccc2)CN(C(=O)C=Cc2ccccc2)C/C1=C\c1ccccc1` [3g, (3E,5E)-3,5-dibenzylidene-1-cinnamoylpiperidin-4-one], the “AAPH Inhibition (%, at 100 μΜ)” value in data set [2] was found to be 53 ± 1.6%. Also, the IC50 in data set [3] is 82 µM; on eel AChE it was 100 µM. Besides, in data set [4], the “RM ± S.D.” value turned out to be 0.235 ± 0.039.

In the case of `O=C1/C(=C/c2cccc3ccccc23)CN(C(=O)/C=C/c2ccc(O)c(O)c2)C/C1=C\c1cccc2ccccc12` [3h, (3E,5E)-1-((E)-3-(3,4-dihydroxyphenyl)acryloyl)-3,5-bis(naphthalen-1-ylmethylene)piperidin-4-one], the “AAPH Inhibition (%, at 100 μΜ)” value in data set [2] is recorded as 93 ± 2.2%. The IC50 in data set [3] (setting [5]) is 34 µM. The inhibition at 100 µM at eel AChE was 14 to 34%. The “RM ± S.D.” value in data set [4] was −0.657 and −0.657 ± 0.013.

Turning to `COc1cc(/C=C/C(=O)CC(=O)/C=C/c2ccc(O)c(OC)c2)ccc1O` [Curcumin, reference compound], the inhibition at 100 µM in data set [3] was 38%. Further, in data set [4], the “RM ± S.D.” value was determined as 0.175 ± 0.029.

In the case of `Cc1c(C)c2c(c(C)c1O)CCC(C)(C(=O)O)O2` (centres unmarked) [Trolox, reference compound], the “AAPH Inhibition (%, at 100 μΜ)” value in data set [2] is 92 ± 2.1%.

With “(3E,5E)-3,5-bis((1H-imidazol-2-yl)methylene)piperidin-4-one [1f]”, the “LOX (% Inhibition at 100 μM) ± SEM” value in data set [1] is 36% ± 0.9.

The record behind these values is paper PMC7662280 (Molecules, 2020).
